Counter-ions that a name gives are not always drawn. Where only a bound is given, the exact number is not on record here.

T1 sequence (Q07343 1-564 isoform Q07343-2): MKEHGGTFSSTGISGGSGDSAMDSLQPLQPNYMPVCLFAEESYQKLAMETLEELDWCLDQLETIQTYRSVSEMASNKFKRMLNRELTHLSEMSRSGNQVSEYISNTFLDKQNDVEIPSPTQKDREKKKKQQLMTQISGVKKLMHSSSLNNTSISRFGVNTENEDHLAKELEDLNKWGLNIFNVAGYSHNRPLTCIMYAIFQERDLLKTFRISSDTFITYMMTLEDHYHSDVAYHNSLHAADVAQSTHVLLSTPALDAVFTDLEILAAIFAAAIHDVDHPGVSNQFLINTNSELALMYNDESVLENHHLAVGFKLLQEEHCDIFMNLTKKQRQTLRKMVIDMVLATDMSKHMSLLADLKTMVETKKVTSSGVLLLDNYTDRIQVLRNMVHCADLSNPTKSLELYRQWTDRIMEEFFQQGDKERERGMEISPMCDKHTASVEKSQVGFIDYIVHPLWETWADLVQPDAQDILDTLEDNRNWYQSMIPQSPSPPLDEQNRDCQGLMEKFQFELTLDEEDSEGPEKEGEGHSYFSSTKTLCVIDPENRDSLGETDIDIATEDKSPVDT

One assay has as its target T1, PDE4B (human recombinant) (Homo sapiens, UniProt Q07343).
T1 construct: made in house; host or cells: Saccharomyces cerevisiae strain GL62 (PDE-deficient yeast)
Nature of the assay: Inhibition of PDE4B activity (FP and/or SPA assay). The class given is biochemical. To be noted: generally FP assay; one reading or average of n readings; read-out: PDE4B pIC50 (generally in FP assay) (±about 0.5) (converted). The text has this:
Human recombinant PDE4B, in particular the 2B splice variant thereof (HSPDE4B2B), is disclosed in WO 94/20079 and also M. M. McLaughlin et al., “A low Km, rolipram-sensitive, cAMP-specific phosphodiesterase from human brain: cloning and expression of cDNA, biochemical characterisation of recombinant protein, and tissue distribution of mRNA”, J. Biol. Chem., 1993, 268, 6470-6476. For example, in Example 1 of WO 94/20079, human recombinant PDE4B is described as being expressed in the PDE-deficient yeast Saccharomyces cerevisiae strain GL62, e.g. after induction by addition of 150 uM CuSO4, and 100,000×g supernatant fractions of yeast cell lysates are described for use in the harvesting of PDE4B enzyme.
The ability of compounds to inhibit catalytic activity at PDE4B or 4D (human recombinant), PDE3 (from bovine aorta), PDE5 (human recombinant) or PDE6 (from bovine retina) can optionally be determined by Scintillation Proximity Assay (SPA) in a 96-well format.
Test compounds (as a solution in DMSO, suitably about 2 microlitre (ul) volume of DMSO solution) are preincubated at ambient temperature (room temperature, e.g. 19-23° C.) in Wallac Isoplates (code 1450-514) with PDE enzyme in 50 mM Tris-HCl buffer pH 7.5, 8.3 mM MgCl2, 1.7 mM EGTA, 0.05% (w/v) bovine serum albumin for 10-30 minutes (usually 30 minutes). The enzyme concentration is adjusted so that no more than 20% hydrolysis of the substrate defined below occurs in control wells without compound, during the incubation. For the PDE3, PDE4B and PDE4D assays, [5′,8-^3H]Adenosine 3′,5′-cyclic phosphate (Amersham Pharmacia Biotech, code TRK.559; or Amersham Biosciences UK Ltd, Pollards Wood, Chalfont St Giles, Buckinghamshire HP8 4SP, UK) is added to give 0.05uCi per well and about 10 nM final concentration. For the PDE5 and PDE6 assays, [8^−3H]Guanosine 3′,5′-cyclic phosphate (Amersham Pharmacia Biotech, code TRK.392) is added to give 0.05uCi per well and about 36 nM final concentration. Plates containing assay mixture, suitably approx. 100 ul volume of assay mixture, are mixed on an orbital shaker for 5 minutes and incubated at ambient temperature for 1 hour. Phosphodiesterase SPA beads (Amersham Pharmacia Biotech, code RPNQ 0150) are added (about 1 mg per well) to terminate the assay. Plates are sealed and shaken and allowed to stand at ambient temperature for 35 minutes to 1 hour (suitably 35 minutes) to allow the beads to settle. Bound radioactive product is measured using a WALLAC TRILUX 1450 Microbeta scintillation counter. For inhibition curves, 10 concentrations (e.g. 1.5 nM-30 uM) of each compound are assayed. Curves are analysed using ActivityBase and XLfit (ID Business Solutions Limited, 2 Ocean Court, Surrey Research Park, Guildford, Surrey GU2 7QB, United Kingdom) Results are expressed as pIC50 values.
The ability of compounds to inhibit catalytic activity at PDE4B (human recombinant) or PDE4D (human recombinant) can optionally be determined by IMAP Fluorescence Polarisation (FP) assay (IMAP Explorer kit, available from Molecular Devices Corporation, Sunnydale, Calif., USA; Molecular Devices code: R8062) in 384-well format.
The IMAP FP assay is able to measure PDE activity in an homogenous, non-radioactive assay format. The FP assay uses the ability of immobilised trivalent metal cations, coated onto nanoparticles (tiny beads), to bind the phosphate group of Fl-AMP that is produced on the hydrolysis of fluorescein-labelled (Fl) cyclic adenosine mono-phosphate (Fl-cAMP) to the non-cyclic Fl-AMP form. […] Binding of Fl-AMP product to the beads (coated with the immobilised trivalent cations) slows the rotation of the bound Fl-AMP and leads to an increase in the fluorescence polarisation ratio of parallel to perpendicular light. Inhibition of the PDE reduces/inhibits this signal increase. […]
Regarding `CCc1nc2c(cnn2CC)c(NC2CCOCC2)c1CNC(=O)c1ccc(NC(=O)CCCCCCCN(C)CCO)cc1` [Example 1C, N-{[1,6-diethyl-4-(tetrahydro-2H-pyran-4-ylamino)-1H-pyrazolo[3,4-b]pyridin-5-yl]methyl}-4-({8-[(2-hydroxyethyl)(methyl)amino]octanoyl}amino)benzamide], the IC50 was about 0.0501 nM.

On to `CCc1nc2c(cnn2CC)c(NC2CCOCC2)c1CNC(=O)c1ccc(NC(=O)CCCCCCCN2CCC[C@@H]2COC)cc1` [Example 11, N-{[1,6-diethyl-4-(tetrahydro-2H-pyran-4-ylamino)-1H-pyrazolo[3,4-b]pyridin-5-yl]methyl}-4-[(8-{(2R)-2-[(methyloxy)methyl]-1-pyrrolidinyl}octanoyl)amino]benzamide trifluoroacetate], for which the IC50 is about 0.0501 nM.

For the compound `CCc1nc2c(cnn2CC)c(NC2CCOCC2)c1CNC(=O)c1ccc(NC(=O)CCCCCCCN2CCC[C@H]2COC)cc1` [Example 12, N-{[1,6-diethyl-4-(tetrahydro-2H-pyran-4-ylamino)-1H-pyrazolo[3,4-b]pyridin-5-yl]methyl}-4-[(8-{(2S)-2-[(methyloxy)methyl]-1-pyrrolidinyl}octanoyl)amino]benzamide trifluoroacetate], the IC50 is about 0.0316 nM.

On to `CCc1nc2c(cnn2CC)c(NC2CCOCC2)c1CNC(=O)c1ccc(NC(=O)CCCCCCCN2CCOCC2)cc1` [Example 17, formate salt of N-{[1,6-diethyl-4-(tetrahydro-2H-pyran-4-ylamino)-1H-pyrazolo[3,4-b]pyridin-5-yl]methyl}-4-{[8-(4-morpholinyl)octanoyl]amino}benzamide], for which the IC50 was about 0.158 nM.

For the compound `CCc1nc2c(cnn2CC)c(NC2CCOCC2)c1CNC(=O)c1ccc(CCCCOCCCCN2CCOCC2)cc1` [Example 20, formate salt of N-{[1,6-diethyl-4-(tetrahydro-2H-pyran-4-ylamino)-1H-pyrazolo[3,4-b]pyridin-5-yl]methyl}-4-(4-{[4-(4-morpholinyl)butyl]oxy}butyl)benzamide], the IC50 is about 0.1 nM.

Consider `CCc1nc2c(cnn2CC)c(NC2CCOCC2)c1CNC(=O)c1ccc(CCCCOCCCCN2CCCC2)cc1` [Example 21, formate salt of N-{[1,6-diethyl-4-(tetrahydro-2H-pyran-4-ylamino)-1H-pyrazolo[3,4-b]pyridin-5-yl]methyl}-4-(4-{[4-(1-pyrrolidinyl)butyl]oxy}butyl)benzamide], for which the IC50 is about 0.0631 nM.

`CCc1nc2c(cnn2CC)c(NC2CCOCC2)c1CNC(=O)c1ccc(NC(=O)CCCCCN(C)CCO)cc1` [Example 31, N-{[1,6-diethyl-4-(tetrahydro-2H-pyran-4-ylamino)-1H-pyrazolo[3,4-b]pyridin-5-yl]methyl}-4-({6-[(2-hydroxyethyl)(methyl)amino]hexanoyl}amino)benzamide]: the IC50 is about 0.0794 nM.

Regarding `CCc1nc2c(cnn2CC)c(NC2CCOCC2)c1CNC(=O)c1ccc(NC(=O)CCCCCCCCCCN(C)CCO)cc1` [Example 34, N-{[1,6-diethyl-4-(tetrahydro-2H-pyran-4-ylamino)-1H-pyrazolo[3,4-b]pyridin-5-yl]methyl}-4-({11-[(2-hydroxyethyl)(methyl)amino]undecanoyl}amino)benzamide], the IC50 is about 1 nM.

Another assay relates to LPS-induced pulmonary neutrophilia in rats. In words: In Vivo Assay 1: LPS induced pulmonary neutrophilia in rats, intratracheal administration. More on the design: species or system rat. To be noted: after i.t. administration to the rat as a dry powder; preliminary tests. From the text: This assay is an animal model of acute inflammation in the lung—specifically neutrophilia induced by lipopolysaccharide (LPS)—and allows the study of putative inhibition of such neutrophilia (anti-inflammatory effect) by an intratracheally (i.t.) administered PDE4 inhibitor (“drug”). The PDE4 inhibitors are suitably in dry powder, aqueous solution or aqueous suspension form. I.t. administration is one model of inhaled administration, allowing topical delivery to the lung.
Animals: Male CD (Sprague Dawley Derived) rats supplied by Charles River, United Kingdom are housed in groups of 5 rats per cage, acclimatised after delivery for at least 7 days with bedding/nesting material regularly changed, fed on SDS diet R1 pelleted food given ad lib, and supplied with daily-changed pasteurised animal grade drinking water.
Device for dry powder administration: For these studies, a Penn Century DP-4 dry powder intratracheal (i.t.) delivery device (insufflator) is used for administration of a dry powder blend of vehicle (inhalation grade lactose) and the PDE4 inhibitor compound or salt of the invention (“drug”). Each device is numbered and the sample loading chamber is unscrewed from the main device and weighed. The i.t. delivery needle is also weighed. The drug+lactose blend or inhalation grade lactose (vehicle control) is then added to the sample chamber and this is then re-weighed. The sample chamber is fitted back on to the main device to prevent any drug being lost. This procedure is repeated for all of the Penn century devices to be used in the study (one separate device for each animal). After dosing to the animals, the sample chambers and needles are re-weighed in order to determine the amount of sample that was expelled from the device.
Device for aqueous solution administration: A blunt dosing needle, whose forward end is slightly angled to the needle axis, is used, with a flexible plastic portex canula inserted into the needle. The portex cannula is inserted into the lumen of the blunt stainless steel dosing needle and this is carefully inserted into the back of the animal's throat and into the trachea via the larynx. A known volume (200 microlitres) of the vehicle (0.2% Tween 80™ in saline) or of the solution (or suspension) drug composition is administered into the trachea using a plastic syringe that is attached to the portex cannula and dosing needle. A new internal cannula is used for each different drug group. After dosing, the needle is removed from the trachea and the animals are removed from the table and continually observed until they recover from the effects of anaesthesia. The animals are then returned to the holding cages and given free access to food and water, and are observed and any unusual behavioural changes noted. (Aqueous suspensions can be handled generally similarly.)
Drugs and Materials: Lipopolysaccharide (LPS) (Serotype:0127:B8, e.g. from Sigma, UK; e.g. L3129 prepared by phenol extraction) is dissolved in phosphate-buffered saline (PBS).
For dry powder, aqueous solution or aqueous suspension administration, PDE4 inhibitors are preferably used in size-reduced (e.g. micronised) form, for example according to the Micronisation Example(s) disclosed herein.
For dry powder administration of the drug, the PDE4 inhibitor compound or salt of the invention (drug) is administered as a dry powder blended with inhalation-grade (respiratory-grade) lactose, i.e. as a dry powder composition. The target quantity of dry powder composition administered i.t. to each animal is 2 mg. This remains constant throughout the studies. To achieve different doses, blends of the drug dry powder and lactose, containing different concentrations of the PDE4 inhibitor compound or salt of the invention (drug), are prepared. […]
As for `CCc1nc2c(cnn2CC)c(NC2CCOCC2)c1CNC(=O)c1ccc(NC(=O)CCCCCCCN(C)CCO)cc1` [N-{[1,6-diethyl-4-(tetrahydro-2H-pyran-4-ylamino)-1H-pyrazolo[3,4-b]pyridin-5-yl]methyl}-4-({8-[(2-hydroxyethyl)(methyl)amino]octanoyl}amino)benzamide], the “duration of action in i.t. rat LPS-induced neutrophilia model” value is 4 h.

The assay is the same for the next values; noted with them: after i.t. administration to the rat as an aqueous solution; preliminary tests.
For the compound `CCc1nc2c(cnn2CC)c(NC2CCOCC2)c1CNC(=O)c1ccc(NC(=O)CCCCCCCN(C)CCO)cc1` [N-{[1,6-diethyl-4-(tetrahydro-2H-pyran-4-ylamino)-1H-pyrazolo[3,4-b]pyridin-5-yl]methyl}-4-({8-[(2-hydroxyethyl)(methyl)amino]octanoyl}amino)benzamide], the “duration of action in i.t. rat LPS-induced neutrophilia model” value is at least 2 h.
